Data: US5079246A, “Novel indoloquinlones” (Beacham Group p. l. c., priority 1988, dated 1992)
pIC50: −log10 of the molar value.

Assays:
[1] = Geller-Seifter procedure (anxiolytic conflict test in rats); format: in vivo; details: Rattus norvegicus, po, 1 h, 60 min before testing, read-out: increase in responding in the `conflict` session (percentage increase in square root of total lever presses in FR5); for change in vivo at 20 mg/kg: 20 mg/kg p.o.
Experimental: Potential anxiolytic properties have been evaluated using the Geller-Seifter procedure based on that originally described by Geller and Seifter (1960) Psychopharmacologia, 1, 482-492.
Rats are trained on a variable interval 30 sec schedule (VI30) to press a lever in order to obtain food reward. The 3 min sessions of the VI30 schedule alternate with 3 min of a schedule (FR5) in which every 5th lever press is followed by a presentation of a food pellet paired with a 0.2 sec mild footshock. The amplitude of the shock is adjusted for each rat to give equivalent response rates. The total study consists of VI and FR components and lasts 30 mins. Rats typically respond with high rates of lever pressing under the VI30 schedule and low response rats under the FR5 `conflict` session. Anxiolytic drugs increase the suppressed response rates of rats in `conflict` sessions.
The compound is administered intraperitoneally or orally to groups of 6-16 rats 30 min (intraperitoneal route) or 60 min (oral route) before testing.
The results are expressed as the percentage increase in square root of the total number of lever presses in the FR5 `conflict` sessions. Square root transformation is necessary to normalise the data for statistical analysis using parametric methods. A change in the square root of the VI can indicate non-specific drug effects i.e. stimulation or sedation.

[2] = target: site on or near the Cl^- channel portion of the GABAA /BDZ/Cl^- channel complex; assay: [^35 S]-TBPS binding to rat cerebral cortex membranes in vitro; details: 2 nM [^35 S]-TBPS, pH 7.1, 25° C.
Experimental: [^35 S]-TBPS binding to rat cerebral cortex membranes in vitro
[^35 S]-TBPS labels a site on or near the Cl^- channel portion of the GABAA /BDZ/Cl^- channel complex. Literature studies have shown that [^35 S]-TBPS binding is directly related to the permeability of the Cl^- channel (e.g. Concas et al, 1988).
Modulation of [^35 S]-TBPS binding is measured by a method similar to that of Gee et al (1986).
Pooled rat cerebral cortices were homogenised in 20 volumes of 0.32M sucrose and centrifuged at 1000 g for 20 minutes (4° C.). The supernatant was removed and recentrifuged at 50,000 g (4° C., 20 mins). The P2 pellet was then suspended in 20 volumes of Tris citrate buffer (pH 7.1) and centrifuged at 50,000 g (4° C., 20 mins). This washing step was repeated three times and the pellet finally resuspended in 20 volumes of buffer and stored at -70° C. prior to use.
[…] Non-specific binding was measured in the presence of 10^-4 M picrotoxin. Varying concentrations of test drugs 10^-7, 10^-6, 10^-5 and 10^-4 M final concentration)were added in a volume of 50 μl. The total assay volume was 500 μl. Incubation was stopped by rapid filtration using a Skatron cell harvester and radioactivity measured by liquid scintillation spectrometry. IC50 's were calculated as the concentration of test drug to inhibit 50% of specific binding. Concas A. et al, (1988) J. Neurochem. 51(6), 1868-1876. Gee K. W. et al, (1986) Mol. Pharmacol. 30, 218-225.

pIC50 ([2]; done in the presence of GABA) | pIC50 ([2]; done in the absence of GABA) | SMILES | change in vivo at 20 mg/kg [1] | change in vivo at 100 mg/kg ([1]; 100 mg/kg p.o.)
– | – | Cn1c2ccccc2c2c(N)c3c(nc21)CCCC3=O [Example E4, 11-Amino-6-methyl-1,2,3,4-tetrahydro-6H-quinindolin-1-one] | 29% | –
5.92 | – | CC1CCc2nc3c(c(N)c2C1=O)c1ccccc1n3C (racemic) [Example E11, (±) 11-Amino-2,6-dimethyl-1,2,3,4-tetrahydro-6H-quinindolin-1-one] | 52% | –
– | 5.12 | CCn1c2ccccc2c2c(N)c3c(nc21)CCCC3=O [Example E5, 11-Amino-6-ethyl-1,2,3,4-tetrahydro-6H-quinindolin-1-one] | 29% | –
5.42 | – | CC1CC(C)c2nc3c(c(N)c2C1=O)c1ccccc1n3C (racemic) [Example E15, (±) 11-Amino-1,2,3,4-tetrahydro-2,4,6-trimethyl-6H-quinindolin-1-one] | – | –
– | – | CC1CC(=O)c2c(nc3c(c2N)c2ccccc2n3C)C1 (racemic) [Example E10, (±) 11-Amino-3,6-dimethyl-1,2,3,4-tetrahydro-6H-quinindolin-1-one] | 17% | –
5.48 | – | Cn1c2ccccc2c2c(N)c3c(nc21)CCCCC3=O [Example E16, 12-Amino-7-methyl-cyclohepta[5,6]pyrido[2,3-b]indol-1-one] | 11% | –
– | 5.42 | CCCn1c2ccccc2c2c(N)c3c(nc21)CCCC3=O [Example E6, 11-Amino-6-n-propyl-1,2,3,4-tetrahydro-6H-quinindolin-1-one] | 17% | –
– | – | Nc1c2c(nc3[nH]c4ccccc4c13)CCCC2=O [Example E1, 11-Amino-1,2,3,4-tetrahydro-6H-quinindolin-1-one] | 16% | –
5.72 | – | C=CCn1c2ccccc2c2c(N)c3c(nc21)CCCC3=O [Example E7, 11-Amino-6-(2-propenyl)-1,2,3,4-tetrahydro-6H-quinindolin-1-one] | 16% | –
5.77 | – | Cn1c2ccccc2c2c(N)c3c(nc21)CCC(C)(C)C3=O [Example E13, 11-Amino-1,2,3,4-tetrahydro-2,2,6-trimethyl-6H-quinindolin-1-one] | 21% | –
– | 5.36 | Cn1c2ccccc2c2c(N)c3c(nc21)CC(C)(C)CC3=O [Example E8, 11-Amino-1,2,3,4-tetrahydro-3,3,6-trimethyl-6H-quinindolin-1-one] | – | –
– | – | Cn1c2ccccc2c2c(N)c3c(nc21)CCC3=O [Example E17, 10-Amino-5-methyl-cyclopenta[5,6]pyrido[2,3-b]indol-1-one] | – | 37%
6.00 | – | C#CCC1CCc2nc3c(c(N)c2C1=O)c1ccccc1n3C (racemic) [Example E14, (±) 11-Amino-6-methyl-2-(2-propynyl)-1,2,3,4-tetrahydro-6H-quinindolin-1-one] | – | –
5.85 | – | CCC1CCc2nc3c(c(N)c2C1=O)c1ccccc1n3C (racemic) [Example E12, (±) 11-Amino-2-ethyl-6-methyl-1,2,3,4-tetrahydro-6H-quinindolin-1-one] | 33% | –
